The structures appear in SMILES notation.

This is an account of results in patent US20250346580A1, “NOVEL PYRIMIDINYL SULFONAMIDE DERIVATIVES” (Hoffmann-La Roche Inc., priority 2023, published 2025).

Sequence of human GPR17 short isoform (Q13304 29-367): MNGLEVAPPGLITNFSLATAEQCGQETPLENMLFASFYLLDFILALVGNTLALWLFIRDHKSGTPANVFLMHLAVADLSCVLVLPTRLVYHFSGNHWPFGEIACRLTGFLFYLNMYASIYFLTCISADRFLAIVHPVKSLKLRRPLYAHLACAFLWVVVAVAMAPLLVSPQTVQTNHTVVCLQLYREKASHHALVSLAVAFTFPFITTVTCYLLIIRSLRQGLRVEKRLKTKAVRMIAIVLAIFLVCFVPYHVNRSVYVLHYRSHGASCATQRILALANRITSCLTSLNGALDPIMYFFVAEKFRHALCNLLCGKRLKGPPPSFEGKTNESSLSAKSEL

In this assay the target is human GPR17 short isoform (Homo sapiens, UniProt Q13304). Description: GPR17 cAMP assay (hGPR17 cAMP). In kind it is cell-based. To be noted: CHO-K1 cells stably expressing human GPR17 short isoform; antagonist mode with EC80 of MDL29,951, forskolin 15 μM, TR-FRET cAMP. Here is the method:
GPR17 cAMP Assay Protocol:
CHO-K1 cells stably expressing vector containing untagged human GPR17 short isoform (Roche) were cultured at 37° C./5% CO2 in DMEM (Dulbecco's Modified Eagle Medium):F-12 (1:1) supplemented with 10% foetal bovine serum and 400 μg/ml Geneticin.
Changes in intracellular cyclic adenosine monophosphate (cAMP) levels were quantified using the Nano-TRF Detection Assay kit (Roche Diagnostics, Cat. No. 05214386001). This assay allows for direct cAMP quantification in a homogeneous solution. cAMP is detected based on time-resolved fluorescence energy transfer (TR-FRET) and competitive binding of ruthenylated cAMP and endogenous cAMP to an anti-cAMP monoclonal antibody labeled with AlexaFluor-700. The Ruthenium complex serves as the FRET donor and transfers energy to AlexaFluor-700. The FRET signal is inversely proportional to the cAMP concentration.
CHO-GPR17S cells were detached with Accutase and resuspended in assay buffer consisting of Hank's Balanced Salt Solution (HBSS), 10 mM HEPES (4-(2-hydroxyethyl) piperazine-1-ethanesulfonic acid solution) and 0.1% bovine serum albumin (pH 7.4). The cells were seeded in black 384-well plates (Corning) at a density of 10'000 cells/20 μl assay buffer until the addition of compounds.
Test antagonist compounds were serially diluted in dimethyl sulfoxide (DMSO) and spotted in 384-well plates. The compounds were then diluted in HBSS buffer supplemented with an EC80 concentration of MDL29,951 (3-(2-Carboxy-4,6-dichloroindol-3-yl)propionic acid) (GPR17 agonist) plus 3-Isobutyl-1-methylxanthine (IBMX) (0.5 mM final concentration) and added to the cells at room temperature. Forskolin (15 μM final concentration) was added 5 minutes after the test compounds and the cells were incubated at room temperature for 30 minutes. The assay was stopped by adding cAMP detection mix (containing detergents for cell lysis) for 90 minutes at room temperature.
Cellular cAMP was measured using a Paradigm reader (Molecular Devices). The raw data was used to calculate the FRET signal based on the assay's P-factor as per cAMP kit instructions. The data was normalized to the maximal activity of a reference antagonist and dose response curves were fitted to the percent activity of the test compounds using a sigmoidal dose response model (Genedata Screener).
Background: Cyclic AMP is a second messenger, typically raised through Gs and lowered through Gi signalling.
`COc1nc(NS(=O)(=O)c2c[nH]c(-c3ccccc3)c2)nc(OC)c1OC(F)F` [Example 2, N-[5-(difluoromethoxy)-4,6-dimethoxy-pyrimidin-2-yl]-5-phenyl-1H-pyrrole-3-sulfonamide] came in with an IC50 of 478 nM. Next, `COc1nc(NS(=O)(=O)c2c[nH]c(-c3ccccc3)c2)nc(OC)c1OCCF` [Example 3, N-[5-(2-fluoroethoxy)-4,6-dimethoxy-pyrimidin-2-yl]-5-phenyl-1H-pyrrole-3-sulfonamide]: 73 nM; `COc1nc(NS(=O)(=O)c2c[nH]c(-c3nccs3)c2)nc(OC)c1OCC(F)F` [Example 4, N-[5-(2,2-difluoroethoxy)-4,6-dimethoxy-pyrimidin-2-yl]-5-thiazol-2-yl-1H-pyrrole-3-sulfonamide]: 500 nM. Next, `COc1nc(NS(=O)(=O)c2c[nH]c(-c3ncccc3F)c2)nc(OC)c1OC(F)F` [Example 5, N-[5-(difluoromethoxy)-4,6-dimethoxy-pyrimidin-2-yl]-5-(3-fluoro-2-pyridyl)-1H-pyrrole-3-sulfonamide]: 325 nM. Next, `COc1nc(NS(=O)(=O)c2c[nH]c(-c3ncccc3F)c2)nc(OC)c1CC(F)F` [Example 6, N-[5-(2,2-difluoroethyl)-4,6-dimethoxy-pyrimidin-2-yl]-5-(3-fluoro-2-pyridyl)-1H-pyrrole-3-sulfonamide]: 107 nM; `COc1nc(NS(=O)(=O)c2c[nH]c(-c3ncccc3F)c2)nc(OC)c1OCC(F)F` [Example 8, N-[5-(2,2-difluoroethoxy)-4,6-dimethoxy-pyrimidin-2-yl]-5-(3-fluoro-2-pyridyl)-1H-pyrrole-3-sulfonamide]: 99 nM. Regarding `COc1nc(NS(=O)(=O)c2c[nH]c(-c3nccs3)c2)ncc1OCC(F)F` [Example 9, N-[5-(2,2-difluoroethoxy)-4-methoxy-pyrimidin-2-yl]-5-thiazol-2-yl-1H-pyrrole-3-sulfonamide], half-maximal inhibition (IC50) required 697 nM. Next, `COc1nc(NS(=O)(=O)c2c[nH]c(-c3nccs3)c2)nc(OC)c1CCC#N` [Example 10, N-[5-(2-cyanoethyl)-4,6-dimethoxy-pyrimidin-2-yl]-5-thiazol-2-yl-1H-pyrrole-3-sulfonamide]: 69 nM; `COc1nc(NS(=O)(=O)c2c[nH]c(-c3ccsn3)c2)nc(OC)c1OCC(F)F` [Example 11, N-[5-(2,2-difluoroethoxy)-4,6-dimethoxy-pyrimidin-2-yl]-5-isothiazol-3-yl-1H-pyrrole-3-sulfonamide]: 142 nM. Next, `COc1nc(NS(=O)(=O)c2c[nH]c(-c3ccccc3)c2)nc(OC)c1CC(F)F` [Example 12, N-[5-(2,2-difluoroethyl)-4,6-dimethoxy-pyrimidin-2-yl]-5-phenyl-1H-pyrrole-3-sulfonamide]: 169 nM; `COc1nc(NS(=O)(=O)c2c[nH]c(-c3cscn3)c2)nc(OC)c1CC(F)F` [Example 15, N-[5-(2,2-difluoroethyl)-4,6-dimethoxy-pyrimidin-2-yl]-5-thiazol-4-yl-1H-pyrrole-3-sulfonamide]: 661 nM; `COc1nc(NS(=O)(=O)c2c[nH]c(-c3cscn3)c2)nc(OC)c1OC(F)F` [Example 16, N-[5-(difluoromethoxy)-4,6-dimethoxy-pyrimidin-2-yl]-5-thiazol-4-yl-1H-pyrrole-3-sulfonamide]: 2270 nM. For `COc1nc(NS(=O)(=O)c2c[nH]c(-c3ccccn3)c2)nc(OC)c1CC(F)F` [Example 17, N-[5-(2,2-difluoroethyl)-4,6-dimethoxy-pyrimidin-2-yl]-5-(2-pyridyl)-1H-pyrrole-3-sulfonamide], it took 133 nM to reach half-maximal inhibition (IC50). Next, `COc1nc(NS(=O)(=O)c2c[nH]c(-c3ccccn3)c2)nc(OC)c1OC(F)F` [Example 18, N-[5-(difluoromethoxy)-4,6-dimethoxy-pyrimidin-2-yl]-5-(2-pyridyl)-1H-pyrrole-3-sulfonamide]: 344 nM.

With `COc1nc(NS(=O)(=O)c2c[nH]c(-c3ccccn3)c2)nc(OC)c1OCC(F)F` [Example 19, N-[5-(2,2-difluoroethoxy)-4,6-dimethoxy-pyrimidin-2-yl]-5-(2-pyridyl)-1H-pyrrole-3-sulfonamide], half-maximal inhibition (IC50) was put at 182 nM.

Consider `COc1nc(NS(=O)(=O)c2c[nH]c(-c3nc(C)cs3)c2)nc(OC)c1CC(F)F` [Example 20, N-[5-(2,2-difluoroethyl)-4,6-dimethoxy-pyrimidin-2-yl]-5-(4-methylthiazol-2-yl)-1H-pyrrole-3-sulfonamide], for which inhibition was half-maximal at 198 nM (IC50). Next, `COc1nc(NS(=O)(=O)c2c[nH]cc2Cc2ccccc2)nc(OC)c1CC(F)F` [Example 21, 4-benzyl-N-[5-(2,2-difluoroethyl)-4,6-dimethoxy-pyrimidin-2-yl]-1H-pyrrole-3-sulfonamide]: 635 nM; `COc1nc(NS(=O)(=O)c2c[nH]cc2Cc2ccccc2)nc(OC)c1OC(F)F` [Example 22, 4-benzyl-N-[5-(difluoromethoxy)-4,6-dimethoxy-pyrimidin-2-yl]-1H-pyrrole-3-sulfonamide]: 2260 nM; `COc1nc(NS(=O)(=O)c2c[nH]c(-c3ncccc3F)c2)nc(OC)c1CCC#N` [Example 23, N-[5-(2-cyanoethyl)-4,6-dimethoxy-pyrimidin-2-yl]-5-(3-fluoro-2-pyridyl)-1H-pyrrole-3-sulfonamide]: 45 nM. Next, `COc1nc(NS(=O)(=O)c2c[nH]c(-c3ncccc3F)c2)ncc1CC(F)F` [Example 24, N-[5-(2,2-difluoroethyl)-4-methoxy-pyrimidin-2-yl]-5-(3-fluoro-2-pyridyl)-1H-pyrrole-3-sulfonamide]: 331 nM. Next, `COc1nc(NS(=O)(=O)c2c[nH]c(-c3cscn3)c2)nc(OC)c1OCCF` [Example 25, N-[5-(2-fluoroethoxy)-4,6-dimethoxy-pyrimidin-2-yl]-5-thiazol-4-yl-1H-pyrrole-3-sulfonamide]: 916 nM; `COc1nc(NS(=O)(=O)c2c[nH]c(-c3cscn3)c2)nc(OC)c1OCC(F)F` [Example 26, N-[5-(2,2-difluoroethoxy)-4,6-dimethoxy-pyrimidin-2-yl]-5-thiazol-4-yl-1H-pyrrole-3-sulfonamide]: 724 nM. `COc1nc(NS(=O)(=O)c2c[nH]c(-c3ccccn3)c2)nc(OC)c1OCCF` [Example 27, N-[5-(2-fluoroethoxy)-4,6-dimethoxy-pyrimidin-2-yl]-5-(2-pyridyl)-1H-pyrrole-3-sulfonamide]: the IC50 was 127 nM.

In turn, `COc1nc(NS(=O)(=O)c2c[nH]cc2Cc2ccccc2)nc(OC)c1OCCF` [Example 28, 4-benzyl-N-[5-(2-fluoroethoxy)-4,6-dimethoxy-pyrimidin-2-yl]-1H-pyrrole-3-sulfonamide] came in with an IC50 of 1080 nM. On to `[2H]C([2H])(c1cccc(F)c1)c1c[nH]cc1S(=O)(=O)Nc1nc(OC)c(OCC(F)F)c(OC)n1` [Example 29, 4-[dideuterio-(3-fluorophenyl)methyl]-N-[5-(2,2-difluoroethoxy)-4,6-dimethoxy-pyrimidin-2-yl]-1H-pyrrole-3-sulfonamide], for which half-maximal inhibition (IC50) required 964 nM.

`COc1nc(NS(=O)(=O)c2c[nH]cc2Cc2ccccc2)nc(OC)c1OCC(F)F` [Example 30, 4-benzyl-N-[5-(2,2-difluoroethoxy)-4,6-dimethoxy-pyrimidin-2-yl]-1H-pyrrole-3-sulfonamide] came in with a concentration for half-maximal inhibition (IC50) of 1860 nM. For `COc1nc(NS(=O)(=O)c2c[nH]c(-c3nc(C)cs3)c2)nc(OC)c1OCCF` [Example 31, N-[5-(2-fluoroethoxy)-4,6-dimethoxy-pyrimidin-2-yl]-5-(4-methylthiazol-2-yl)-1H-pyrrole-3-sulfonamide], the IC50 stood at 222 nM.

On to `COc1nc(NS(=O)(=O)c2c[nH]c(-c3nc(C)cs3)c2)nc(OC)c1OC(F)F` [Example 32, N-[5-(difluoromethoxy)-4,6-dimethoxy-pyrimidin-2-yl]-5-(4-methylthiazol-2-yl)-1H-pyrrole-3-sulfonamide], for which inhibition was half-maximal at 523 nM (IC50). For `COc1nc(NS(=O)(=O)c2c[nH]c(-c3nc(C)cs3)c2)nc(OC)c1OCC(F)F` [Example 33, N-[5-(2,2-difluoroethoxy)-4,6-dimethoxy-pyrimidin-2-yl]-5-(4-methylthiazol-2-yl)-1H-pyrrole-3-sulfonamide], the IC50 was determined as 283 nM. In the case of `COc1nc(NS(=O)(=O)c2c[nH]c(-c3nccs3)c2)ncc1CC(F)F` [Example 34, N-[5-(2,2-difluoroethyl)-4-methoxy-pyrimidin-2-yl]-5-thiazol-2-yl-1H-pyrrole-3-sulfonamide], the 50% inhibitory concentration (IC50) was determined as 457 nM.

In general, IC50 refers to the concentration at which inhibition is half-maximal. Low values mean inhibition by little substance, high ones a need for much substance.
